For one assay, the target named is 229E mPRO (Human coronavirus 229E (HCoV-229E), UniProt P0C6X1). Briefly: 229E mPRO enzymatic assay. The format is biochemical, Human Coronavirus (HCov) 229E.
Another assay has as its system HCoV 229E. Kind of assay: HCoV 229E cytopathic effect (CPE) assay. The format is cell-based, Human Coronavirus (HCov) 229E. The following applies: unidentified human coronavirus, CellTiter Glo, read-out: 229 ECPE EC50. As for the experimental part:
Compounds were assayed using standard methods against multiple coronaviral strains, including HCoV 229E and OC43 strains. The antiviral activity of compounds was calculated based on the protection of the virus-induced CPE at each concentration normalized by the virus control.
Cytopathic effect (CPE) was measured by CellTiter Glo following the manufacturer's manual. The antiviral activity of compounds was calculated based on the protection of the virus-induced CPE at each concentration normalized by the virus control.

Like-named read-outs stand apart in the source and are kept apart here.

Chain of 229E mPRO (P0C6X1 2966-3267 limits assumed): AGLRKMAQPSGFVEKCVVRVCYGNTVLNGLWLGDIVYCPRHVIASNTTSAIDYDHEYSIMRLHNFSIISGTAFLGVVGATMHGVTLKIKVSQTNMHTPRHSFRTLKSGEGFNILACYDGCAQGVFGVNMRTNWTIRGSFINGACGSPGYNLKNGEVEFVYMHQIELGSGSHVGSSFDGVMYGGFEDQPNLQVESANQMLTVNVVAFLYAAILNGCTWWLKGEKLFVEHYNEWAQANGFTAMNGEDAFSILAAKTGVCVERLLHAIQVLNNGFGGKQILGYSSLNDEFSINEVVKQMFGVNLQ
Experimental for 229E mPRO: Compounds were assayed using standard methods to assess compound activity and IC50. […] The assay buffer contained 20 mM of Tris-HCl (pH 7.3), 100 mM of NaCl, 1 mM of EDTA, 5 mM of TCEP and 0.1% BSA.
The compounds were added to an assay plate.
IC50 values of compounds were calculated with the GraphPad Prism software using the nonlinear regression model of log(inhibitor) vs. response—Variable slope (four parameters). The inhibition activity was calculated using the formula below, IC50 values was calculated using the Inhibition % data. Inhibition %=[(Sample−Average ZPE)/(Average HPE−Average ZPE)]*100%^# • ^#HEP: Hundred percent effect controls. […] Containing enzyme+substrate, no compound. • Sample: Compound activity testing wells. Containing compound+enzyme+substrate. • BG: Compound background control wells. Containing compound+substrate, no enzyme.

Consider `COc1cccc2[nH]c(C(=O)N[C@@H](CC(C)C)C(=O)N[C@H](C#N)Cc3n[nH]c4ccccc34)cc12` (mixture of isomers) [Compound 245], for which, at 229E mPRO (read-out: 229E mPRO IC50), the IC50 was over 30 µM.

As for `COc1cccc2[nH]c(C(=O)N[C@@H](CC(C)C)C(=O)N[C@@H](C[C@@H]3CCNC3=O)C(C#N)N3CCCC3)cc12` (single isomer, unassigned) [331 (Isomer 1)], the IC50 on 229E mPRO (read-out: 229E mPRO IC50) is under 22 µM. Besides, the EC50 in the assay on HCoV 229E was under 22 µM.

For `COc1cccc2[nH]c(C(=O)N[C@@H](CC(C)C)C(=O)N[C@@H](C[C@@H]3CCNC3=O)C(C#N)N3CCCC3)cc12` (single isomer, unassigned) [331 (Isomer 2)], the IC50 on 229E mPRO (read-out: 229E mPRO IC50) is under 22 µM.

Molecule `CC(C)C[C@H](NC(=O)CC(C)(O)c1ccc(Cl)cc1)C(=O)N[C@H](C#N)C[C@@H]1CCNC1=O` (single isomer, unassigned) [365 (Isomer 1)] came in with an IC50 against 229E mPRO (229E mPRO IC50 (μM)) of 2 to 10 µM.

Take `COc1cccc2[nH]c(C(=O)N3CC(C45CC(C4)C5)C[C@H]3C(=O)N[C@H](C#N)C[C@@H]3CCNC3=O)cc12` (single isomer, unassigned) [385 (Isomer 1)]: the IC50 at 229E mPRO (read-out: 229E mPRO IC50) was under 22 µM. Moreover, in the assay with HCoV 229E, the EC50 was under 22 µM.

Take `COc1cccc2[nH]c(C(=O)N3CC(C45CC(C4)C5)C[C@H]3C(=O)N[C@H](C#N)C[C@@H]3CCNC3=O)cc12` (single isomer, unassigned) [385 (Isomer 2)]: the IC50 at 229E mPRO (read-out: 229E mPRO IC50) was under 22 µM.

As for `CC(C)(C)OC(=O)N1CCCCC12CCN([C@@H](CC1CC1)C(=O)N[C@H](C#N)C[C@@H]1CCNC1=O)C2=O` (single isomer, unassigned) [473 (Isomer 1)], on 229E mPRO (read-out: 229E mPRO IC50), the IC50 is over 30 µM.

For the molecule `N#C[C@H](C[C@@H]1CCCNC1=O)NC(=O)[C@H](CC1CC1)NC(=O)c1cc2cccc(Cl)c2[nH]1` (single isomer, unassigned) [639 (Isomer 1)], the IC50 at 229E mPRO (read-out: 229E mPRO IC50) was under 22 µM. Besides, the EC50 in the assay with HCoV 229E is under 22 µM.

For the molecule `COc1cccc2[nH]c(C(=O)N[C@@H](CC(C)C)C(=O)N[C@H](C#N)C[C@@H]3CCNC3=O)cc12` [Compound 101, N-[(1S)-1-[[(1S)-1-cyano-2-[(3S)-2-oxopyrrolidin-3-yl]ethyl]carbamoyl]-3-methyl-butyl]-4-methoxy-1H-indole-2-carboxamide], the IC50 on 229E mPRO (read-out: 229E mPRO IC50) was under 22 µM. Moreover, the EC50 in the assay with HCoV 229E is under 22 µM.

Consider `COc1cccc2[nH]c(C(=O)N[C@H](C(=O)N[C@H](C#N)C[C@@H]3CCNC3=O)[C@@H]3Cc4ccccc4O3)cc12` [Compound 147], for which the IC50 on 229E mPRO (read-out: 229E mPRO IC50) is over 30 µM.

On to `COc1cccc2[nH]c(C(=O)N[C@@H](Cc3cccc(Cl)c3)C(=O)N[C@H](C#N)C[C@@H]3CCNC3=O)cc12` [Compound 153], for which the IC50 on 229E mPRO (read-out: 229E mPRO IC50) is 10 to 30 µM.

Take `COc1cccc2[nH]c(C(=O)N3C[C@H](OC(C)(C)C)C[C@H]3C(=O)N[C@H](C#N)C[C@@H]3CCNC3=O)cc12` [Compound 165, (2S,4R)-4-(tert-butoxy)-N—((S)-1-cyano-2-((S)-2-oxopyrrolidin-3-yl)ethyl)-1-(4-methoxy-1H-indole-2-carbonyl)pyrrolidine-2-carboxamide]: the IC50 on 229E mPRO (read-out: 229E mPRO IC50) was over 30 µM.

For the molecule `COc1cccc2[nH]c(C(=O)N3C[C@H](C4CCCCC4)C[C@H]3C(=O)N[C@H](C#N)C[C@@H]3CCNC3=O)cc12` [Compound 167, (2S,4S)—N—((S)-1-cyano-2-((S)-2-oxopyrrolidin-3-yl)ethyl)-4-cyclohexyl-1-(4-methoxy-1H-indole-2-carbonyl)pyrrolidine-2-carboxamide], the IC50 on 229E mPRO (read-out: 229E mPRO IC50) was 2 to 10 µM.

Turning to `COc1cccc2[nH]c(C(=O)N3CCC4(CC4)C[C@H]3C(=O)N[C@H](C#N)C[C@@H]3CCNC3=O)cc12` [Compound 183, (S)—N—((S)-1-cyano-2-((S)-2-oxopyrrolidin-3-yl)ethyl)-6-(4-methoxy-1H-indole-2-carbonyl)-6-azaspiro[2.5]octane-5-carboxamide], the IC50 on 229E mPRO (read-out: 229E mPRO IC50) lay in the range of 2 to 10 µM.

Regarding `N#C[C@H](C[C@@H]1CCNC1=O)NC(=O)[C@@H]1C[C@@H](c2ccccc2)CN1C(=O)/C=C/c1ccc(Cl)cc1F` [Compound 209, (2S,4S)-1-((E)-3-(4-chloro-2-fluorophenyl)acryloyl)-N—((S)-1-cyano-2-((S)-2-oxopyrrolidin-3-yl)ethyl)-4-phenylpyrrolidine-2-carboxamide], on 229E mPRO (read-out: 229E mPRO IC50), the IC50 fell in the range of 10 to 30 µM.

With `N#C[C@H](C[C@@H]1CCNC1=O)NC(=O)[C@@H]1CCCNN1C(=O)/C=C/c1ccc(Cl)cc1F` [Compound 213, (S)-2-((E)-3-(4-chloro-2-fluorophenyl)acryloyl)-N—((S)-1-cyano-2-((S)-2-oxopyrrolidin-3-yl)ethyl)hexahydropyridazine-3-carboxamide], the IC50 on 229E mPRO (read-out: 229E mPRO IC50) was over 30 µM.

`CN1CCCC[C@]12CCN([C@@H](CC1CC1)C(=O)N[C@H](C#N)C[C@@H]1CCNC1=O)C2=O` [Compound 273C]: the IC50 on 229E mPRO (read-out: 229E mPRO IC50) lay within 2 to 10 µM.

`COc1cccc2[nH]c(C(=O)N[C@@H](CC(C)C)C(=O)N[C@@H](C[C@@H]3CCNC3=O)C3OC(=O)N(C(C)C)C3=N)cc12` (some centres unmarked) [Compound 357]: the IC50 at 229E mPRO (read-out: 229E mPRO IC50) is over 30 µM.

In the case of `COc1cccc2[nH]c(C(=O)N[C@@H](CC(C)C)C(=O)N[C@@H](C[C@@H]3CCNC3=O)C3OC(=O)N(c4ccccc4)C3=N)cc12` (some centres unmarked) [Compound 359], the IC50 on 229E mPRO (read-out: 229E mPRO IC50) fell in the range of 10 to 30 µM.

Consider `COc1cccc2[nH]c(C(=O)N3CC4(CCOCC4)CC3C(=O)N[C@H](C#N)C[C@@H]3CCNC3=O)cc12` (some centres unmarked) [Compound 387], for which the IC50 at 229E mPRO (read-out: 229E mPRO IC50) was over 30 µM.

`COc1cccc2[nH]c(C(=O)N[C@@H](CC(C)C)C(=O)NC(C#N)c3cccnc3)cc12` (some centres unmarked) [Compound 433]: the EC50 in the assay on HCoV 229E fell in the range of 2 to 10 µM.

`N#C[C@H](C[C@@H]1CCNC1=O)NC(=O)[C@H](CC1CC1)N1CCC2(CCCN2)C1=O` (some centres unmarked) [Compound 471]: on 229E mPRO (read-out: 229E mPRO IC50), the IC50 lay in the range of 10 to 30 µM.

Turning to `N#C[C@H](C[C@@H]1CCNC1=O)NC(=O)[C@@H]1CS[C@H]2CC[C@H](NC(=O)OCC3c4ccccc4-c4ccccc43)C(=O)N21` [Compound 477], the IC50 at 229E mPRO (read-out: 229E mPRO IC50) is over 30 µM.

For `COc1cccc2[nH]c(C(=O)N[C@@H](CC3CC3)C(=O)N[C@H](C#N)C[C@@H]3CCCNC3=O)cc12` [Compound 491, N-[(1S)-2-[[(1S)-1-cyano-2-[(3S)-2-oxo-3-piperidyl]ethyl]amino]-1-(cyclopropylmethyl)-2-oxo-ethyl]-4-methoxy-1H-indole-2-carboxamide], the EC50 with HCoV 229E was under 22 µM.

As for `CCNC(C#N)[C@H](C[C@@H]1CCNC1=O)NC(=O)[C@H](CC(C)C)NC(=O)c1cc2c(OC)cccc2[nH]1` (stereo partly drawn) [Compound 511, N-[(1S)-1-[[(1S)-2-cyano-2-(ethylamino)-1-[[(3S)-2-oxopyrrolidin-3-yl]methyl]ethyl]carbamoyl]-3-methyl-butyl]-4-methoxy-1H-indole-2-carboxamide], the EC50 in the assay on HCoV 229E is under 22 µM.

For the molecule `CCO[C@@H]1C[C@@H](C(=O)N[C@H](C#N)C[C@@H]2CCNC2=O)N(C(=O)c2cc3c(OC)cccc3[nH]2)C1` [Compound 535], the IC50 on 229E mPRO (read-out: 229E mPRO IC50) was over 30 µM.

In the case of `COc1cccc2[nH]c(C(=O)N3C[C@H](SC)C[C@H]3C(=O)N[C@H](C#N)C[C@@H]3CCNC3=O)cc12` [Compound 551], the EC50 in the assay on HCoV 229E fell in the range of 2 to 10 µM.

In the case of `CCCNC(=O)OC(C#N)[C@H](C[C@@H]1CCNC1=O)NC(=O)[C@H](CC(C)C)NC(=O)c1cc2c(OC)cccc2[nH]1` (some centres unmarked) [Compound 581], at 229E mPRO (read-out: 229E mPRO IC50), the IC50 was over 30 µM.

With `COc1cccc2[nH]c(C(=O)N[C@@H](CC(C)C)C(=O)N[C@@H](C[C@@H]3CCNC3=O)C(C#N)OC(=O)NC(C)C)cc12` (some centres unmarked) [Compound 583], the IC50 on 229E mPRO (read-out: 229E mPRO IC50) was over 30 µM.

`N#C[C@H](C[C@@H]1CCCNC1=O)NC(=O)[C@H](CC1CC1)NC(=O)c1cc2ccc(Cl)cc2[nH]1` [Compound 635, 6-Chloro-N-[(1S)-2-[[(1S)-1-cyano-2-[(3S)-2-oxo-3-piperidyl]ethyl]amino]-1-(cyclopropylmethyl)-2-oxo-ethyl]-1H-indole-2-carboxamide]: the EC50 in the assay with HCoV 229E was under 22 µM.

Turning to `N#C[C@H](C[C@@H]1CCCNC1=O)NC(=O)[C@H](CC1CC1)NC(=O)c1nc2c(Cl)ccc(Cl)c2[nH]1` [Compound 637, 4,7-dichloro-N-[(1S)-2-[[(1S)-1-cyano-2-[(3S)-2-oxo-3-piperidyl]ethyl]amino]-1-(cyclopropylmethyl)-2-oxo-ethyl]-1H-benzimidazole-2-carboxamide], the EC50 in the assay with HCoV 229E was under 22 µM.

With `N#C[C@H](C[C@@H]1CCNC1=O)NC(=O)[C@H](CC1CC1)NC(=O)c1cc2c([nH]1)CCCC2` [Compound 711], the EC50 in the assay with HCoV 229E is under 22 µM.

`N#C[C@H](C[C@@H]1CCCNC1=O)NC(=O)[C@H](CC1CC1)NC(=O)c1cc2c(Cl)nccc2[nH]1` [Compound 715]: in the assay with HCoV 229E, the EC50 is under 22 µM.

Turning to `N#C[C@H](C[C@@H]1CCCNC1=O)NC(=O)[C@H](CC1CC1)NC(=O)c1cc2cc(Cl)ncc2[nH]1` [Compound 717], the EC50 in the assay on HCoV 229E was under 22 µM.

With `CC(C)(C)C[C@H](NC(=O)c1cc2cccc(Cl)c2[nH]1)C(=O)N[C@H](C#N)C[C@@H]1CCCNC1=O` [Compound 721, 7-chloro-N—((S)-1-(((S)-1-cyano-2-((S)-2-oxopiperidin-3-yl)ethyl)amino)-4,4-dimethyl-1-oxopentan-2-yl)-1H-indole-2-carboxamide], the EC50 in the assay on HCoV 229E was under 22 µM.

For the molecule `CC(C)(C)C[C@H](NC(=O)c1cc2ccc(Cl)c(Cl)c2[nH]1)C(=O)N[C@H](C#N)C[C@@H]1CCCNC1=O` [Compound 725], the EC50 in the assay on HCoV 229E is under 22 µM.

For `CC(C)(C)C[C@H](NC(=O)c1cc2c(Cl)ccc(Cl)c2[nH]1)C(=O)N[C@H](C#N)C[C@@H]1CCCNC1=O` [Compound 735], the EC50 in the assay with HCoV 229E was under 22 µM.

Turning to `COc1ccc(Cl)c2[nH]c(C(=O)N[C@@H](CC(C)(C)C)C(=O)N[C@H](C#N)C[C@@H]3CCCNC3=O)cc12` [Compound 737], the EC50 with HCoV 229E was under 22 µM.

Regarding `COc1c(Cl)ccc2[nH]c(C(=O)N[C@@H](CC(C)(C)C)C(=O)N[C@H](C#N)C[C@@H]3CCCNC3=O)cc12` [Compound 739], in the assay with HCoV 229E, the EC50 was under 22 µM.

On to `CC(C)(C)C[C@H](NC(=O)c1cc2ccc(Cl)cc2[nH]1)C(=O)N[C@H](C#N)C[C@@H]1CCCNC1=O` [Compound 745], for which, in the assay on HCoV 229E, the EC50 is under 22 µM.

The term IC50 denotes the concentration that gives 50% inhibition. As a reminder, the EC50 is the concentration giving half of the maximal effect.

The values above are taken from patent US11124497B1, “Inhibitors of cysteine proteases and methods of use thereof” (priority 2020, dated 2021).
